Test results reported in ChEMBL document CHEMBL6078635, “Advances in diarylpyrimidines and related analogues as HIV-1 nonnucleoside reverse transcriptase inhibitors (2019-2023)” (Eur J Med Chem, 2024).
Blank lines part the entries; values can stand above or below the molecule they belong to.

Experiments:
[1] = system: Human immunodeficiency virus 1; assay: Antiviral activity against HIV-1 […] mutant; assay type: functional, organism-based
[2] = system: Human immunodeficiency virus 1; assay: Antiviral activity against HIV1 harboring Y181C mutant infected in MT4 cells; assay type: functional, organism-based; details: Human immunodeficiency virus 1, MT4
[3] = system: Human immunodeficiency virus 1; assay: Antiviral activity against HIV1 harboring K103N mutant infected in MT4 cells; assay type: functional, organism-based; details: Human immunodeficiency virus 1, MT4
[4] = system: Human immunodeficiency virus 1; assay: Antiviral activity against HIV1 harboring Y188L mutant infected in MT4 cells; assay type: functional, organism-based; details: Human immunodeficiency virus 1, MT4
[5] = system: Human immunodeficiency virus 1; assay: Antiviral activity against HIV1 harboring E138K mutant infected in MT4 cells; assay type: functional, organism-based; details: Human immunodeficiency virus 1, MT4
[6] = system: Human immunodeficiency virus 1; assay: Antiviral activity against HIV1 harboring F227L/V106A double mutant infected in MT4 cells; assay type: functional, organism-based; details: Human immunodeficiency virus 1, MT4
[7] = system: Human immunodeficiency virus 1; assay: Antiviral activity against HIV1 harboring K103N/Y181C double mutant; assay type: functional, organism-based
[8] = system: Human immunodeficiency virus 1; assay: Antiviral activity against HIV-1 3B infected in human MT4 cells assessed as inhibition of viral replication incubated for 5 days by MTT assay; assay type: functional, organism-based; details: Human immunodeficiency virus 1, 3B, MT4, 120 h
MT4 [9] = assay: Cytotoxicity against human MT4 cells assessed as reduction in cell viability; assay type: functional
[10] = system: Human immunodeficiency virus 1; assay: Antiviral activity against wild type HIV-1; assay type: functional, organism-based
[11] = Aqueous solubility of compound at pH 7.4 incubated for 24 hrs by LC-MS/MS analysis; assay type: physicochemical; details: buffer
MT4 [12] = assay: Cytotoxicity against human MT4 cells assessed as reduction in cell viability after 5 days by MTT assay; assay type: functional; details: MT4, 120 h, time 5 day
[13] = Selectivity index, ratio of CC50 for cytotoxicity against human MT4 cells to EC50 for antiviral activity against wild type HIV-1 IIIB infected in human MT4 cells; assay type: toxicity, cell-based; details: read-out: Selectivity Index
MT2 = assay: Cytotoxicity against human MT2 cells; assay type: functional
[14] = system: Human immunodeficiency virus 1; assay: Antiviral activity against HIV-1 3B harboring E138K mutant infected in MT4 cells assessed as reduction in virus induced cytopathic effect incubated for 5 days by MTT assay; assay type: functional, organism-based; details: Human immunodeficiency virus 1, 3B, MT4, 120 h
[15] = system: Human immunodeficiency virus 1; assay: Antiviral activity against HIV1 harboring K103N mutant infected in MT4 cells assessed as inhibition of viral growth; assay type: functional, organism-based; details: Human immunodeficiency virus 1, MT4
[16] = system: Human immunodeficiency virus 1; assay: Antiviral activity against wild type HIV-1 3B infected in human MT4 cells assessed as inhibition of virus-induced cytopathic effect measured for 5 days by MTT assay; assay type: functional, organism-based; details: Human immunodeficiency virus 1, 3B, MT4, 120 h
[17] = system: Human immunodeficiency virus 1; assay: Antiviral activity against HIV-1 3B harboring L100I mutant infected in MT4 cells assessed as reduction in virus induced cytopathic effect incubated for 5 days by MTT method; assay type: functional, organism-based; details: Human immunodeficiency virus 1, 3B, MT4, 120 h
[18] = system: Human immunodeficiency virus 1; assay: Antiviral activity against NNRTI-resistant HIV-1 harboring Y181C mutant assessed as inhibition of viral growth; assay type: functional, organism-based
[19] = system: Human immunodeficiency virus 1; assay: Antiviral activity against HIV-1 Y188L mutant infected in human MT4 cells assessed as reduction in virus induced cytopathic effect incubated for 5 days by MTT method; assay type: functional, organism-based; details: Human immunodeficiency virus 1, MT4, 120 h
[20] = system: Human immunodeficiency virus 1; assay: Antiviral activity against HIV-1 3B harboring F227L/V106A double mutant infected in MT4 cells assessed as reduction in virus induced cytopathic effect incubated for 5 days by MTT method; assay type: functional, organism-based; details: Human immunodeficiency virus 1, 3B, MT4, 120 h
[21] = system: Human immunodeficiency virus 1; assay: Antiviral activity against wild type HIV-1 3B; assay type: functional, organism-based; details: Human immunodeficiency virus 1, 3B
[22] = Oral bioavailability in human; assay type: ADME, organism-based; details: in vivo
[23] = Lipophilicity, logP of compound; assay type: physicochemical; details: octanol/water
[24] = target: Human immunodeficiency virus type 1 reverse transcriptase (Human immunodeficiency virus 1, UniProt Q72547); assay: Inhibition of wild type HIV-1 Reverse transcriptase
[25] = Metabolic stability in human liver microsomes assessed as half life measured upto 120 mins by LC-MS/MS analysis; assay type: ADME, Microsome
[26] = Metabolic stability in human liver microsomes assessed as intrinsic clearance measured for 60 mins by LC-MS/MS analysis; assay type: ADME, Microsome; details: read-out: CLH
MOLT-4 = assay: Cytotoxicity against human MOLT-4 cells assessed as reduction in cell viability by MTT assay; assay type: functional

Compound: N#Cc1ccc(Nc2nccc(C(C#N)c3ccc(-c4ccc(C#N)cc4)c(F)c3)n2)cc1 (stereo not given)
EC50 [1]: 1210 nM
EC50 [2]: 870 nM
EC50 [3]: 900 nM
EC50 [4]: 9810 nM
EC50 [5]: 170 nM
EC50 [6]: > 25600 nM
EC50 [7]: > 36500 nM
EC50 [8]: 20 nM
CC50 (MT4 [9]): 36400 nM

Compound: N#Cc1ccc(Nc2nc(N)cc(Oc3c(F)cc(-c4ccc(C#N)cc4)cc3F)n2)cc1
EC50 [10]: 1.8 nM
EC50 [1]: 16 nM
EC50 [2]: 32 nM
EC50 [3]: 2 nM
EC50 [4]: 1050 nM
EC50 [5]: 8 nM
EC50 [7]: 10 nM
solubility at 24 h [11]: < 1 µg/mL

Compound: Cc1cc(-c2ccc(C#N)cc2)cc(C)c1Nc1ccnc(Nc2ccc(C#N)cc2)n1
CC50 (MT4 [12]): 2080 nM
selectivity ratio [13]: 2060

Compound: Cc1cc(C#CC2CCN(Cc3ccncc3)CC2)cc(C)c1Oc1ccnc(Nc2ccc(C#N)cc2)n1
EC50 [10]: 19 nM
EC50 [3]: 50 nM
EC50 [5]: 190 nM
CC50 (MT2): 192000 nM
selectivity ratio [13]: 101

Compound: Cc1cc(-c2ccoc2)cc(C)c1Oc1nc(NC2CCN(Cc3ccc(C(N)=O)cc3)CC2)nc2ccsc12
EC50 [7]: 813 nM
EC50 [14]: 177 nM
EC50 [15]: 74.8 nM
EC50 [16]: 57.5 nM
EC50 [17]: 262 nM
EC50 [18]: 180 nM
EC50 [19]: 222 nM
EC50 [20]: 525 nM

Compound: Cc1cc(-c2ccc(C#N)cc2)cc(C)c1Oc1nc(NC2CCN(Cc3ccc(C(N)=O)cc3)CC2)nc2ccsc12
EC50 [7]: 125 nM
EC50 [14]: 23.2 nM
EC50 [15]: 6.02 nM
EC50 [16]: 9.93 nM
EC50 [17]: 10.5 nM
EC50 [18]: 18.9 nM
EC50 [19]: 23.9 nM
EC50 [20]: 97.2 nM

Compound: COc1ccc(-c2cc(C)c(Oc3nc(NC4CCN(Cc5ccc(C(N)=O)cc5)CC4)nc4ccsc34)c(C)c2)cc1
EC50 [7]: 1120 nM
EC50 [14]: 149 nM
EC50 [15]: 58.4 nM
EC50 [16]: 52.6 nM
EC50 [17]: 268 nM
EC50 [18]: 158 nM
EC50 [19]: 110 nM
EC50 [20]: 297 nM

Compound: N#Cc1ccc(Nc2nccc(Oc3ccc4ccccc4c3Br)n2)cc1
EC50 [10]: 2.4 nM
EC50 [7]: 6750 nM
CC50 (MT4 [12]): 154000 nM
selectivity ratio [13]: 65600

EC50 [21]: 3.4 nM
bioavailability [22]: 16.5%
Compound: Cc1cc(/C=C/C#N)cc([N+](=O)[O-])c1Nc1nc(Nc2ccc(C#N)cc2)nc2ccccc12

Compound: N#Cc1ccc(Nc2nccc(Oc3ccc4cc(C#N)ccc4c3Br)n2)cc1
EC50 [10]: 2 nM
EC50 [7]: 240 nM
CC50 (MT4 [12]): 283000 nM
selectivity ratio [13]: 181000

logP [23]: 5.36
Compound: N#Cc1ccc(Nc2nccc(Oc3ccc4ccccc4c3)n2)cc1

Compound: Cc1cc(-c2ccsc2)cc(C)c1Oc1nc(NC2CCN(Cc3ccc(C(N)=O)cc3)CC2)nc2ccsc12
EC50 [7]: 4520 nM
EC50 [14]: 739 nM
EC50 [15]: 171 nM
EC50 [16]: 240 nM
EC50 [17]: 925 nM
EC50 [18]: 741 nM
EC50 [19]: 628 nM
EC50 [20]: 854 nM

Compound: Cc1cc(-c2ccc(C#N)cc2)cc(C)c1Oc1ccnc(S(=O)(=O)CC(=O)Nc2ccc(C#N)cc2)n1
EC50 [10]: 6 nM
EC50 [1]: 8 nM
EC50 [2]: 26 nM
EC50 [3]: 6 nM
EC50 [4]: 122 nM
EC50 [5]: 26 nM
EC50 [6]: 642 nM
EC50 [7]: 226 nM
CC50 (MT4 [12]): 24400 nM
IC50 [24]: 142 nM
selectivity ratio [13]: 4070

Compound: COc1cc2cc(C#N)ccc2c(OC)c1Oc1ccnc(Nc2ccc(C#N)cc2)n1
EC50 [10]: 5 nM
EC50 [7]: 160 nM
CC50 (MT4 [12]): > 118000 nM
selectivity ratio [13]: > 25000

Compound: COC(=O)n1ncc(-c2cc(C)c(Oc3ccnc(Nc4ccc(C#N)cc4)n3)c(C)c2)n1
EC50 [10]: 13 nM
EC50 [3]: 22 nM
EC50 [5]: 160 nM
CC50 (MT2): > 242000 nM

Compound: N#Cc1ccc(Nc2ncc(CO)c(Nc3c(F)cc(-c4ccc(C#N)cc4)cc3F)n2)cc1
EC50 [10]: 0.9 nM
EC50 [1]: 1.9 nM
EC50 [2]: 8.2 nM
EC50 [4]: 162 nM
EC50 [5]: 3.5 nM
half-life [25]: 45.9 h
CLint scaled [26]: 0.763 mL/min/kg
CC50 (MOLT-4): 225000 nM

Compound: Cc1cc(/C=C/C#N)cc(C)c1Nc1ccnc(Nc2ccc(C#N)cc2)n1 [RILPIVIRINE]
CC50 (MT4 [12]): > 3980 nM

Compound: N#Cc1ccc(Nc2ncc(C(N)=O)c(Oc3ccc4cc(C#N)ccc4c3)n2)cc1
EC50 [10]: 3.7 nM
EC50 [5]: 11 nM
CC50 (MT4 [12]): > 307000 nM
selectivity ratio [13]: 84700

EC50 [10]: 1.8 nM
Compound: Cc1cc(C(C#N)c2ccccc2F)nc(Nc2ccc(C#N)cc2)n1 (stereo not given)

IC50 [24]: 11 nM
Compound: N#Cc1ccc(Nc2nccc(Oc3ccc4cccnc4c3Br)n2)cc1
CC50 (MT2): > 299000 nM

Compound: Cc1cc(/C=C/C#N)cc(C)c1Oc1nc(NC2CCN(Cc3ccc(B(O)O)cc3)CC2)nc2c1COC2
EC50 [10]: 7.23 nM
EC50 [1]: 9.85 nM
EC50 [2]: 19.7 nM
EC50 [3]: 7.19 nM
EC50 [4]: 39.9 nM
EC50 [5]: 17.3 nM
EC50 [6]: 43.2 nM
EC50 [7]: 77.9 nM
CC50 (MT4 [12]): 25600 nM

Compound: Cc1cc(-c2ccc(N(C)C)cc2)cc(C)c1Oc1nc(NC2CCN(Cc3ccc(C(N)=O)cc3)CC2)nc2ccsc12
EC50 [7]: > 23500 nM
EC50 [14]: 245 nM
EC50 [15]: 173 nM
EC50 [16]: 176 nM
EC50 [17]: 1120 nM
EC50 [18]: 585 nM
EC50 [19]: 556 nM
EC50 [20]: 1250 nM

Compound: Cc1cc(C#Cc2cccnc2)cc(C)c1Oc1ccnc(Nc2ccc(C#N)cc2)n1
EC50 [10]: 3 nM
EC50 [1]: 76 nM
EC50 [3]: 10 nM
EC50 [6]: 209 nM
EC50 [7]: 935 nM
CC50 (MT4 [12]): 3480 nM

Compound: N#Cc1ccc(Nc2nccc(/C(=N/O)c3ccc(-c4ccc(F)cc4)cc3F)n2)cc1
EC50 [10]: 12 nM
EC50 [1]: 400 nM
EC50 [2]: 182 nM
EC50 [3]: 500 nM
EC50 [4]: 3430 nM
EC50 [5]: 170 nM
EC50 [6]: 4600 nM
EC50 [7]: 22700 nM
CC50 (MT4 [12]): > 292000 nM

Compound: Cc1cc(-c2ccc(F)cc2)cc(C)c1Oc1nc(NC2CCN(Cc3ccc(C(N)=O)cc3)CC2)nc2ccsc12
EC50 [7]: 575 nM
EC50 [14]: 34.8 nM
EC50 [15]: 11.7 nM
EC50 [16]: 12.8 nM
EC50 [17]: 61.1 nM
EC50 [18]: 36.1 nM
EC50 [19]: 51.4 nM
EC50 [20]: 56.6 nM

EC50 [21]: 10.6 nM
bioavailability [22]: 16%
Compound: Cc1cc(/C=C/C#N)cc([N+](=O)[O-])c1Nc1nc(Nc2ccc(C#N)cc2)nc2ccc(Cl)cc12

Compound: Cc1cc(-c2ccc(C#N)cc2)cc(C)c1Oc1nc(NC2CCN(Cc3ccc(S(N)(=O)=O)cc3)CC2)nc2ccsc12
EC50 [7]: 103 nM
EC50 [14]: 44.4 nM
EC50 [15]: 13.2 nM
EC50 [16]: 17 nM
EC50 [17]: 27.4 nM
EC50 [18]: 30.8 nM
EC50 [19]: 53.6 nM
EC50 [20]: 59.9 nM

EC50 [10]: 2 nM
Compound: Cc1cc(C#N)cc(C)c1Oc1ccnc(S(=O)(=O)CC(=O)Nc2ccc(C#N)cc2)n1
CC50 (MT4 [12]): > 6010 nM
selectivity ratio [13]: > 3540
